Data from US20250066341A1 (CHIESI FARMACEUTICI S.P.A., priority 2021, published 2025).

target: T1, human recombinant LPA1 expressed in CHO cells (Homo sapiens, UniProt Q92633); assay: FLIPR calcium mobilization assay, LPA1 antagonism in CHO-hLPA1 cells; assay type: cell-based; details: inhibition of LPA EC80 Ca2+ response, 30 min pre-incubation, expressed as range of activity
T1 construct: expressed in transfected cells; host or cells: CHO cells (CHO-hLPA1 cell line)
Experimental: The effectiveness of compounds of the present invention as LPA1 antagonist can be determined at the human recombinant LPA1 expressed in CHO cells, using a FLIPR assay in 384 well format.
CHO-hLPA1 cell lines are cultured in a humidified incubator at 5% C02 in DMEM/F-12 (1:1) MIXTURE with 2 mM Glutamax, supplemented with 10% of Foetal Bovine Serum, 1 mM Sodium Pyruvate, 11 mM Hepes and 1× Penicillin/Streptomycin. […] Serial dilutions (1:3 or 1:4, 11 points CRC) of compounds are performed in 100% DMSO at 200× the final concentration. […] The final concentration of DMSO in the assay will be 0.5% in each well. Medium is removed by aspiration and cells are then incubated with 30 μl of a loading solution containing 5 μM of the cytoplasmic Ca2+ indicator Cal-520 AM in Assay Buffer containing 2.5 mM probenecid for 30 min at 37° C. incubator (cell loading). The loaded cell plates are transferred into the FLIPR instrument and calcium responses are monitored during the on-line addition protocols. For testing of compounds, after the cell loading, 10 μl/well of 4× antagonists' solution was added onto the cells. After 30 min pre-incubation (at 37° C.), 10 μl/well of 5× concentrated LPA EC80 was added and Ca2+ mobilization responses was followed during the on-line addition protocol. Intracellular peak fluorescence values subtracted by baseline fluorescence are exported and analysed to determine IC50 values, respectively. The calcium response is expressed as percentage of the maximal inhibition of the EC80 agonist response.
The raw data (peak height expressed as relative fluorescence units) are normalized and transformed into “percent of inhibition”. Curve fitting and pIC50 (−LogIC50) estimations are carried out using a four-parameter logistic model using XLfit Software.

T1 sequence (Q92633 whole entry): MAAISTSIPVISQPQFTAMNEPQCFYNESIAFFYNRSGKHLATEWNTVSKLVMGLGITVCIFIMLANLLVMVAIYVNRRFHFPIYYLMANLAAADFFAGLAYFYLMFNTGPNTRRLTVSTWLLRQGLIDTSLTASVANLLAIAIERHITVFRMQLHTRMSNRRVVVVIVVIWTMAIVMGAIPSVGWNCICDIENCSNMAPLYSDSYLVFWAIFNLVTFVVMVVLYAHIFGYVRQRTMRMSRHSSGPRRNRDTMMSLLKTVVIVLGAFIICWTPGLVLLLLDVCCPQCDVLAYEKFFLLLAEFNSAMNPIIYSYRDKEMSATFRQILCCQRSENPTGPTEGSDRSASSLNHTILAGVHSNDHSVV

| SMILES | IC50 [nM] |
| --- | --- |
| Cc1nc(-c2onc(C)c2NS(=O)(=O)CC(C)c2ccccc2)ccc1NC(=O)[C@H]1CCCC[C@@H]1C(=O)O (mixture of isomers) [Compound 29, rac-(1S,2S)-2-((2-methyl-6-(3-methyl-4-((2-phenylpropyl)sulfonamido)isoxazol-5-yl)pyridin-3-yl)carbamoyl)cyclohexane-1-carboxylic acid] | < 50 |
| Cc1nc(-c2onc(C)c2NS(=O)(=O)CC(C)c2ccccc2)ccc1NC(=O)[C@H]1CCCC[C@@H]1C(=O)O (single isomer, unassigned) [Compound 30] | < 50 |
| Cc1noc(-c2ccc(OCC3CCCCC3C(=O)O)cn2)c1NC(=O)O[C@H](C)c1ccccc1Cl (single isomer, unassigned) [Compound 81] | < 50 |
| Cc1nc(-c2onc(C)c2Nc2cncc(OC3CC(F)(F)C3)n2)ccc1NC(=O)[C@H]1CCCC[C@@H]1C(=O)O [Compound 3, (1S,2S)-2-((6-(4-((6-(3,3-difluorocyclobutoxy)pyrazin-2-yl)amino)-3-methylisoxazol-5-yl)-2-methylpyridin-3-yl)carbamoyl)cyclohexane-1-carboxylic acid] | 50 to 250 |
| Cc1nc(-c2onc(C)c2Nc2cncc(C3CCCC3)n2)ccc1NC(=O)[C@H]1CCCC[C@@H]1C(=O)O [Compound 11, (1S,2S)-2-((6-(4-((6-cyclopentylpyrazin-2-yl)amino)-3-methylisoxazol-5-yl)-2-methylpyridin-3-yl)carbamoyl)cyclohexane-1-carboxylic acid] | < 50 |
| Cc1nc(-c2onc(C)c2Nc2cncc(NC3CCCC3)n2)ccc1NC(=O)[C@H]1CCCC[C@@H]1C(=O)O [Compound 15, (1S,2S)-2-((6-(4-((6-(cyclopentylamino)pyrazin-2-yl)amino)-3-methylisoxazol-5-yl)-2-methylpyridin-3-yl)carbamoyl)cyclohexane-1-carboxylic acid] | 50 to 250 |
| Cc1nc(-c2cnn(C)c2CNc2nccc(OC(C)C)n2)ccc1NC(=O)[C@H]1CCCC[C@@H]1C(=O)O [Compound 17, (1S,2S)-2-((6-(5-(((4-isopropoxypyrimidin-2-yl)amino)methyl)-1-methyl-1H-pyrazol-4-yl)-2-methylpyridin-3-yl)carbamoyl)cyclohexane-1-carboxylic acid] | 50 to 250 |
| Cc1nc(-c2cnn(C)c2CNc2nccc(C3CCCCC3)n2)ccc1NC(=O)[C@H]1CCCC[C@@H]1C(=O)O [Compound 18] | < 50 |
| Cc1nc(-c2cnn(C)c2CNc2nccc(-c3ccccc3)n2)ccc1NC(=O)[C@H]1CCCC[C@@H]1C(=O)O [Compound 19, (1S,2S)-2-((2-methyl-6-(1-methyl-5-(((4-phenylpyrimidin-2-yl)amino)methyl)-1H-pyrazol-4-yl)pyridin-3-yl)carbamoyl)cyclohexane-1-carboxylic acid] | < 50 |
| Cc1nc(-c2cnn(C)c2COC(=O)N(C)CCC(C)C)ccc1NC(=O)[C@H]1CCCC[C@@H]1C(=O)O [Compound 21, (1S,2S)-2-((6-(5-(((isopentyl(methyl)carbamoyl)oxy)methyl)-1-methyl-1H-pyrazol-4-yl)-2-methylpyridin-3-yl)carbamoyl)cyclohexane-1-carboxylic acid] | 250 to 600 |
| Cc1nc(-c2onc(C)c2NS(=O)(=O)CCc2ccccc2Cl)ccc1NC(=O)[C@H]1CCCC[C@@H]1C(=O)O [Compound 22, (1S,2S)-2-((6-(4-((2-(2-chlorophenyl)ethyl)sulfonamido)-3-methylisoxazol-5-yl)-2-methylpyridin-3-yl)carbamoyl)cyclohexane-1-carboxylic acid] | < 50 |
| Cc1nc(-c2onc(C)c2NS(=O)(=O)CCc2ccccc2)ccc1NC(=O)[C@H]1CCCC[C@@H]1C(=O)O [Compound 23, (1S,2S)-2-((2-methyl-6-(3-methyl-4-((2-phenylethyl)sulfonamido)isoxazol-5-yl)pyridin-3-yl)carbamoyl)cyclohexane-1-carboxylic acid] | 50 to 250 |
| Cc1nc(-c2onc(C)c2NS(=O)(=O)CCc2ccccc2F)ccc1NC(=O)[C@H]1CCCC[C@@H]1C(=O)O [Compound 24, (1S,2S)-2-((6-(4-((2-(2-fluorophenyl)ethyl)sulfonamido)-3-methylisoxazol-5-yl)-2-methylpyridin-3-yl)carbamoyl)cyclohexane-1-carboxylic acid] | 50 to 250 |
| Cc1nc(-c2onc(C)c2NS(=O)(=O)CCOc2ccc(F)cc2)ccc1NC(=O)[C@H]1CCCC[C@@H]1C(=O)O [Compound 25, (1S,2S)-2-((6-(4-((2-(4-fluorophenoxy)ethyl)sulfonamido)-3-methylisoxazol-5-yl)-2-methylpyridin-3-yl)carbamoyl)cyclohexane-1-carboxylic acid] | 50 to 250 |

Continued, values first:

| IC50 [nM] | SMILES |
| --- | --- |
| < 50 | Cc1noc(-c2ccc(NC(=O)C3CCCCC3C(=O)O)cc2)c1Nc1cncc(OC(C)C)n1 (racemic) [Compound 16, 2-((4-(4-((6-isopropoxypyrazin-2-yl)amino)-3-methylisoxazol-5-yl)phenyl)carbamoyl)cyclohexane-1-carboxylic acid] |
| 50 to 250 | CC(C)Oc1cncc(Nc2c(-c3ccc(NC(=O)C4CCCCC4C(=O)O)cc3)nnn2C)n1 (racemic) [Compound 43, 2-((4-(5-((6-isopropoxypyrazin-2-yl)amino)-1-methyl-1H-1,2,3-triazol-4-yl)phenyl)carbamoyl)cyclohexane-1-carboxylic acid] |
| 50 to 250 | Cc1nc(-c2onc(C)c2Nc2cncc(C(F)(F)F)n2)ccc1NC(=O)[C@H]1CCCC[C@@H]1C(=O)O [Compound 4, (1S,2S)-2-((2-methyl-6-(3-methyl-4-((6-(trifluoromethyl)pyrazin-2-yl)amino)isoxazol-5-yl)pyridin-3-yl)carbamoyl)cyclohexane-1-carboxylic acid] |
| 250 to 600 | CCCCNc1cncc(Nc2c(C)noc2-c2ccc(NC(=O)[C@H]3CCCC[C@@H]3C(=O)O)c(C)n2)n1 [Compound 5, (1S,2S)-2-((6-(4-((6-(butylamino)pyrazin-2-yl)amino)-3-methylisoxazol-5-yl)-2-methylpyridin-3-yl)carbamoyl)cyclohexane-1-carboxylic acid] |
| < 50 | Cc1nc(-c2onc(C)c2Nc2cncc(-c3ccccc3)n2)ccc1NC(=O)[C@H]1CCCC[C@@H]1C(=O)O [Compound 6, (1S,2S)-2-((2-methyl-6-(3-methyl-4-((6-phenylpyrazin-2-yl)amino)isoxazol-5-yl)pyridin-3-yl)carbamoyl)cyclohexane-1-carboxylic acid] |
| 50 to 250 | Cc1nc(-c2onc(C)c2Nc2cncc(-c3cccnc3)n2)ccc1NC(=O)[C@H]1CCCC[C@@H]1C(=O)O [Compound 7, (1S,2S)-2-((2-methyl-6-(3-methyl-4-((6-(pyridin-3-yl)pyrazin-2-yl)amino)isoxazol-5-yl)pyridin-3-yl)carbamoyl)cyclohexane-1-carboxylic acid] |
| 50 to 250 | Cc1nc(-c2onc(C)c2Nc2cncc(-c3ccncc3)n2)ccc1NC(=O)[C@H]1CCCC[C@@H]1C(=O)O [Compound 8, (1S,2S)-2-((2-methyl-6-(3-methyl-4-((6-(pyridin-4-yl)pyrazin-2-yl)amino)isoxazol-5-yl)pyridin-3-yl)carbamoyl)cyclohexane-1-carboxylic acid] |
| < 50 | Cc1nc(-c2onc(C)c2Nc2cncc(C3=CCCCC3)n2)ccc1NC(=O)[C@H]1CCCC[C@@H]1C(=O)O [Compound 10, (1S,2S)-2-((6-(4-((6-(cyclohex-1-en-1-yl)pyrazin-2-yl)amino)-3-methylisoxazol-5-yl)-2-methylpyridin-3-yl)carbamoyl)cyclohexane-1-carboxylic acid] |
| 50 to 250 | Cc1nc(-c2onc(C)c2Nc2cncc(CC(C)C)n2)ccc1NC(=O)[C@H]1CCCC[C@@H]1C(=O)O [Compound 12, (1S,2S)-2-((6-(4-((6-isobutylpyrazin-2-yl)amino)-3-methylisoxazol-5-yl)-2-methylpyridin-3-yl)carbamoyl)cyclohexane-1-carboxylic acid] |
| 50 to 250 | Cc1nc(-c2onc(C)c2Nc2cncc(C(C)C)n2)ccc1NC(=O)[C@H]1CCCC[C@@H]1C(=O)O [Compound 13, (1S,2S)-2-((6-(4-((6-isopropylpyrazin-2-yl)amino)-3-methylisoxazol-5-yl)-2-methylpyridin-3-yl)carbamoyl)cyclohexane-1-carboxylic acid] |
| 50 to 250 | Cc1nc(-c2onc(C)c2Nc2cncc(-c3ccccn3)n2)ccc1NC(=O)[C@H]1CCCC[C@@H]1C(=O)O [Compound 14, (1S,2S)-2-((2-methyl-6-(3-methyl-4-((6-(pyridin-2-yl)pyrazin-2-yl)amino)isoxazol-5-yl)pyridin-3-yl)carbamoyl)cyclohexane-1-carboxylic acid] |
| 50 to 250 | CC(C)Oc1cncc(Nc2c(-c3ccc(NC(=O)[C@H]4CCCC[C@@H]4C(=O)O)cc3)cnn2C)n1 [Compound 20, (1S,2S)-2-((4-(5-((6-isopropoxypyrazin-2-yl)amino)-1-methyl-1H-pyrazol-4-yl)phenyl)carbamoyl)cyclohexane-1-carboxylic acid] |
